In US20070036793A1, “Methods for use of an lkb1/strad7mo25 complex” (priority 2003, published 2007):

Assays:
Settings in all cases: 1 h
AMPKα1 = molecular target: T1, AMPKα1 (Mus musculus, UniProt Q5EG47); test: AMPK activity and Thr172 phosphorylation in LKB1+/+ MEFs after drug stimulation; assay type: cell-based
T1 construct: AMPKα1 and AMPK-related kinases were immunoprecipitated from the cell lysates; endogenous in cells; host or cells: immortalised LKB1+/+ MEFs
Protocol: (§1) FIG. 27 Activity of AMPK-related kinases in LKB1+/+ and LKB1^−/− MEFs. LKB1^+/+ or LKB1^−/− MEFs were either left untreated (black bars) or stimulated with 10 mM phenformin (Phen, white bars) for 1 h. AMPKα1 and AMPK-related kinases were immunoprecipitated from the cell lysates, and in vitro kinase activity towards the AMARA peptide was measured as described in Materials and Methods (Example 4). To confirm equal expression of the kinases in each sample, cell lysates (AMPKα1, NUAK2, MARK2/3 and MARK4) or immunoprecipitated proteins (QIK, QSK, SIK and MARK1) were subjected to SDS-PAGE and western blot analysis. All AMPK-related kinases migrated with the expected molecular mass. In the case of AMPKα1, cell lysates were immunoblotted with a phospho Thr172 antibody (P-AMPK), that recognises the phosphorylated T-loop. A control immunoblot of LKB1 levels in cell lysates is also included in panel B. Results shown are average + SD of 2-4 assays and are representative of at least two independent experiments.
(§2) FIG. 28. […] (A) LKB1^+/+ MEFs were either left untreated or stimulated with the indicated concentrations of phenformin (Phen) for 1 h. AMPKα1/a2 and LKB1 were immunoprecipitated from the cell lysates, and in vitro kinase activity towards the AMARA and LKBtide peptides respectively, were measured as described in Materials and Methods (Example 4). (B) To confirm equal expression of the kinases in each sample, cell lysates were subjected to SDS-PAGE and western blot analysis with the indicated antibodies. The phospho pT172 antibody (P-AMPK) recognises the phosphorylated T-loop of AMPKα1. Results are shown as the average ± SD for a triplicate assay and are representative of two independent experiments. […] AMPKα1 and the indicated AMPK-related kinases were immunoprecipitated from the cell lysates, and in vitro kinase activity towards the AMARA peptide measured as described in Materials and Methods. […]
(§3) Cell culture, stimulation and cell lysis. […] Protein concentrations were determined by the Bradford method with bovine serum albumin as the standard (Bradford, 1976). […]

[1] = system: AMPK-related kinases (NUAK2, QIK, QSK, SIK, MARK1, MARK2/3, MARK4); test: Activity of endogenous AMPK-related kinases immunoprecipitated from MEFs after drug stimulation; assay type: cell-based, mouse
Protocol: as §1, with “A control immunoblot of LKB1 levels in cell lysates is also included in panel B. Results shown are average + SD of 2-4 assays and are representative of at least two independent experiments.” left out
FIG. 28. […] AMPKα1/a2 and LKB1 were immunoprecipitated from the cell lysates, and in vitro kinase activity towards the AMARA and LKBtide peptides respectively, were measured as described in Materials and Methods (Example 4). […] AMPKα1 and the indicated AMPK-related kinases were immunoprecipitated from the cell lysates, and in vitro kinase activity towards the AMARA peptide measured as described in Materials and Methods. […]
as §3

LKB1 = molecular target: T2, LKB1 (Mus musculus, UniProt Q9WTK7); test: Activity of endogenous LKB1 immunoprecipitated from LKB1+/+ MEFs, LKBtide substrate; assay type: cell-based
T2 construct: AMPKα1/a2 and LKB1 were immunoprecipitated from the cell lysates; endogenous in cells; host or cells: LKB1+/+ MEFs
Protocol: as §2, with “AMPKα1.” for “AMPKα1. Results are shown as the average ± SD for a triplicate assay and are representative of two independent experiments.”
Cell culture, stimulation and cell lysis. […] Protein concentrations were determined by the Bradford method with bovine serum albumin as the standard (Bradford, 1976).
0.1-1 mg Hela or MEF cell lysate protein was incubated at 4° C. for 1 h on a shaking platform with 5 μl of protein G-Sepharose conjugated to 5 μg of human LKB1 antibody. […] The p81 membranes were washed in phosphoric acid, and the incorporated radioactivity was measured by scintillation counting as described previously for MAP kinase (Alessi et al., 1995).

T1 sequence (Q5EG47 whole entry): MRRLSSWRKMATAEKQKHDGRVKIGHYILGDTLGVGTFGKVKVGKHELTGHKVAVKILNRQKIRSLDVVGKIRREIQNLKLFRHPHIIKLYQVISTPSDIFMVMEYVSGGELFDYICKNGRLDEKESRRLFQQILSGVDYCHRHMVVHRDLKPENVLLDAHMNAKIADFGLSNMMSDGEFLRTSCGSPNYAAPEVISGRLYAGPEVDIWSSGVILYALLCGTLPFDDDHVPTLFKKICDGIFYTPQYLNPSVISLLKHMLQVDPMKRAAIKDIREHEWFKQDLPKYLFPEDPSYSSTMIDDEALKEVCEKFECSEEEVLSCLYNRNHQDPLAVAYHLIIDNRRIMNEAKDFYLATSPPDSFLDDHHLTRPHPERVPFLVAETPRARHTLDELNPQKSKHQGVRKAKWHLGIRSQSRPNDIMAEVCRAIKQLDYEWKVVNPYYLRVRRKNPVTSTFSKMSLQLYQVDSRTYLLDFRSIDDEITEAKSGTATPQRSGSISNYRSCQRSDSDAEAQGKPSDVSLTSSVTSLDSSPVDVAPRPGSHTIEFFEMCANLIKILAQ
T1 sequence (Q9R078 2-270 partner limits assumed): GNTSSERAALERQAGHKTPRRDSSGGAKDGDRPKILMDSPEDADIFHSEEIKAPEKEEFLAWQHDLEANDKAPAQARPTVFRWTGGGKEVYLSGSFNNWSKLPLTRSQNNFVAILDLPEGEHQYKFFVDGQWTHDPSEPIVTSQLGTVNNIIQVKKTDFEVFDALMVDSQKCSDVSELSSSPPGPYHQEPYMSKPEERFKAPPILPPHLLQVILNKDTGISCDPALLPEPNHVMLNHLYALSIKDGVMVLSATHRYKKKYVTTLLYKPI
T1 sequence (O54950 whole entry partner): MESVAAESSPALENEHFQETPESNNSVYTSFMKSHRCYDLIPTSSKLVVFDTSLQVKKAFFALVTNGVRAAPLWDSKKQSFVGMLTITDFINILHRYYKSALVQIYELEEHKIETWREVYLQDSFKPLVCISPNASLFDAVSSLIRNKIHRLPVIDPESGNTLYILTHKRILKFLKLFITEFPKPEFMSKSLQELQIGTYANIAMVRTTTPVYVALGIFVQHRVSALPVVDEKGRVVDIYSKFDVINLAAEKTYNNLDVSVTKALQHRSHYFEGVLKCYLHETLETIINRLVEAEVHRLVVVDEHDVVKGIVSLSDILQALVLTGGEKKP
T2 sequence (Q9WTK7 1-433 limits assumed): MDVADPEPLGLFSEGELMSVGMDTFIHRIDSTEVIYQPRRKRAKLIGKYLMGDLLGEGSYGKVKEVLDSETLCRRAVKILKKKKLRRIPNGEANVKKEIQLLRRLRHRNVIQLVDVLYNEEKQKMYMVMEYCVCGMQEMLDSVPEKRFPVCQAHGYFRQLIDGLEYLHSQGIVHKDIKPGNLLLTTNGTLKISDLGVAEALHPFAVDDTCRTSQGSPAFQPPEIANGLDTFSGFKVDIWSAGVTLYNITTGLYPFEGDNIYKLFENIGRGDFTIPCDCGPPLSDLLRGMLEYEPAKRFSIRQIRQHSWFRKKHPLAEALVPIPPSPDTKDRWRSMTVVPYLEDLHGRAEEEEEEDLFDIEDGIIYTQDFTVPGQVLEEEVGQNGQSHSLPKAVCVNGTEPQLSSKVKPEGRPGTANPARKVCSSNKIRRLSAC
T2 sequence (Q3UUJ4 whole entry partner): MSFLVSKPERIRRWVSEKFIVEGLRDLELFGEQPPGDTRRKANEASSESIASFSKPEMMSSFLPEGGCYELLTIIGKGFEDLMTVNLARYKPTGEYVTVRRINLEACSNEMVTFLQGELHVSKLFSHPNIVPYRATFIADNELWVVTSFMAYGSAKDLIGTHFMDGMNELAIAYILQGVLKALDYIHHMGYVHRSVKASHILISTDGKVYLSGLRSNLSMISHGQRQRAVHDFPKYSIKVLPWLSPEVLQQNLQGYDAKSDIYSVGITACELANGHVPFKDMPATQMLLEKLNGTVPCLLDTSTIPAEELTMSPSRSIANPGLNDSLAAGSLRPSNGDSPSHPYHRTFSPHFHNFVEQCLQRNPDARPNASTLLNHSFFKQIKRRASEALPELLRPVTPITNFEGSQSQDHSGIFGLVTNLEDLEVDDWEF
T2 sequence (Q06138 whole entry partner): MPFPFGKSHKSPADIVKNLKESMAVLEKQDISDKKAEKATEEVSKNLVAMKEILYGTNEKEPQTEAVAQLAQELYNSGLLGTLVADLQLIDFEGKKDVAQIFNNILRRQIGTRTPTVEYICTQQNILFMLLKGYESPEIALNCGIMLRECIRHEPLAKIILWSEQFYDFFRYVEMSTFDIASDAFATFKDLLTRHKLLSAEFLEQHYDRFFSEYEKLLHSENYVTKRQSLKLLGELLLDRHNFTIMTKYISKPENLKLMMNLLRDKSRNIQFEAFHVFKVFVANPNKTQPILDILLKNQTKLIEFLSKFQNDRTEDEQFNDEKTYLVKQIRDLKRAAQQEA

SMILES	activation of AMPK (AMPKα1; 2 mM AICA riboside)	activity of AMPK-related kinases ([1]; LKB1+/+ MEFs, 2 mM AICA riboside)	LKB1 activity (LKB1)	activation of AMPK (AMPKα1; increasing doses of phenformin)	phosphorylation of Thr172 of AMPK (AMPKα1; increasing doses of phenformin)	activity of AMPK-related kinases ([1]; MEFs, 10 mM phenformin)
NC(=O)c1ncn([C@@H]2O[C@H](CO)[C@@H](O)[C@H]2O)c1N [AICA riboside, 5-aminoimidazole-4-carboxamide (AICA) riboside]	activated AMPK	failed to markedly activate	do not activate LKB1 directly	–	–	–
[H]/N=C(/N)N/C(=N/[H])NCCc1ccccc1 [phenformin]	–	–	did not stimulate LKB1 activity	progressively activated AMPK	increased the phosphorylation of Thr172	not significantly stimulated
